{
  "source": "patent US20220305055A1",
  "about": "“PHARMACEUTICAL CO[…]” (Zincum, Inc., priority 2016, published 2022)",
  "origin": "cited, not measured here",
  "tested_on": "diabetic rats",
  "conditions": "zinc chloride administered",
  "data": [
    {"smiles": "[Cl-].[Cl-].[Zn+2]", "note": "[zinc chloride]", "values": [
      {"measurement": "hyperglycemia", "result": "hyperglycemia improved"}
    ]}
  ]
}
